Results published in patent publication US20040186273A1 (V.I. Technologies, Inc., priority 2000, published 2004).

B1: peptide 88, LAWFWR, on Toyopearl resin, free amino terminal (peptide)
peptide: LAWFWR
modifications: not checked
B2: peptide 93, LEIRLA, on Toyopearl resin, free amino terminal (peptide)
peptide: LEIRLA
modifications: not checked
B3: peptide 114, QWWFII, on Toyopearl resin, free amino terminal (peptide)
peptide: QWWFII
modifications: not checked
B4: peptide 92, SFPYYY, on Toyopearl resin, free amino terminal (peptide)
peptide: SFPYYY
modifications: not checked
B5: peptide 91, YFIWWE, on Toyopearl resin, free amino terminal (peptide)
peptide: YFIWWE
modifications: not checked
B6: peptide 95, SLEEYV, on Toyopearl resin, free amino terminal (peptide)
peptide: SLEEYV
modifications: not checked
B7: peptide 87, YVFNWY, on Toyopearl resin, free amino terminal (peptide)
peptide: YVFNWY
modifications: not checked
B8: peptide 102, WFPHFF, on Toyopearl resin, free amino terminal (peptide)
peptide: WFPHFF
modifications: not checked
B9: peptide 118, TGIPII, on Toyopearl resin, free amino terminal (peptide)
peptide: TGIPII
modifications: not checked
B10: peptide 100, PFHPG, on Toyopearl resin, free amino terminal (peptide)
peptide: PFHPG
modifications: not checked
B11: peptide 96, LRVIIS, on Toyopearl resin, free amino terminal (peptide)
peptide: LRVIIS
modifications: not checked
B12: peptide 119, HKEQGA, on Toyopearl resin, free amino terminal (peptide)
peptide: HKEQGA
modifications: not checked
B13: peptide 84, LLIWIP, on Toyopearl resin, free amino terminal (peptide)
peptide: LLIWIP
modifications: not checked
B14: peptide 94, LLLVIA, on Toyopearl resin, free amino terminal (peptide)
peptide: LLLVIA
modifications: not checked
B15: peptide 117, YWFIYI, on Toyopearl resin, free amino terminal (peptide)
peptide: YWFIYI
modifications: not checked
B16: peptide 99, SNYGPY, on Toyopearl resin, free amino terminal (peptide)
peptide: SNYGPY
modifications: not checked
B17: peptide 90/98, FYVFTA, on Toyopearl resin, free amino terminal (peptide)
peptide: FYVFTA
modifications: not checked
B18: peptide 85, WLYWIP, on Toyopearl resin, free amino terminal (peptide)
peptide: WLYWIP
modifications: not checked
B19: peptide 89, GFFFWW, on Toyopearl resin, free amino terminal (peptide)
peptide: GFFFWW
modifications: not checked
B20: peptide 86, WEFYWF, on Toyopearl resin, free amino terminal (peptide)
peptide: WEFYWF
modifications: not checked
B21: peptide 112, IFFWIK, on Toyopearl resin, free amino terminal (peptide)
peptide: IFFWIK
modifications: not checked
B22: peptide 113, RWIISL, on Toyopearl resin, free amino terminal (peptide)
peptide: RWIISL
modifications: not checked
B23: peptide 115, VFEYIK, on Toyopearl resin, free amino terminal (peptide)
peptide: VFEYIK
modifications: not checked

What follows are molecules tested against radiolabelled octapeptide repeat peptide *acetyl…amide. Settings: not given.

Molecule	% unbound [14C] [%]
peptide 97, QLGHQW, on Toyopearl resin, free amino terminal	85
peptide 116, WLVWIA, on Toyopearl resin, free amino terminal	85
peptide 110, IQIWIF, on Toyopearl resin, free amino terminal	85
peptide 111, LWWLFV, on Toyopearl resin, free amino terminal	85
peptide 101, WIPPYN, on Toyopearl resin, free amino terminal	84

Target: radiolabelled octapeptide repeat peptide *acetyl…amide
Settings: not given
Remark: another data set of the same source

Molecule	% unbound [14C] [%]
B1	90
B2	96
B3	87
B4	90
B5	58
B6	89
B7	45
B8	64
B9	88
B10	88
B11	90
B12	91
B13	89
B14	83
B15	83
B16	79
B17	82
B18	90
B19	23
B20	76
B21	77
B22	89
B23	87

These molecules were tested against radiolabelled octapeptide repeat *acetyl[…]amide (SEQ ID NO:2) (Homo sapiens, UniProt P04156). Settings: not given.

Molecule	binding of octapeptide to resin (in words)
GFFFWW [Peptide 89]	highest affinity binder

Same assay, conditions: pH 7.4

Molecule	% unbound [14C] [%]
YWFIYI [Peptide 117]	83
YVFNWY [Peptide 87]	45
VFEYIK [Peptide 115]	87
YFIWWE [Peptide 91]	58
RWIISL [Peptide 113]	89
SLEEYV [Peptide 95]	89
LLIWIP [Peptide 84]	89
IFFWIK [Peptide 112]	77
LRVIIS [Peptide 96]	90
WLYWIP [Peptide 85]	90
LEIRLA [Peptide 93]	96
IQIWIF [Peptide 110]	85
FYVFTA [90/98]	82
PFHPG [Peptide 100]	88
QLGHQW [Peptide 97]	85
WEFYWF [Peptide 86]	76
TGIPII [Peptide 118]	88
LWWLFV [Peptide 111]	85
SFPYYY [Peptide 92]	90
HKEQGA [Peptide 119]	91
SNYGPY [Peptide 99]	79
LAWFWR [Peptide 88]	90
WIPPYN [Peptide 101]	84
LLLVIA [Peptide 94]	83
WFPHFF [Peptide 102]	64
GFFFWW [Peptide 89]	23
WLVWIA [Peptide 116]	85
QWWFII [Peptide 114]	87
